Consider 11 molecules from ChEMBL document CHEMBL1275587, “Emergence of ciprofloxacin-nonsusceptible Streptococcus pyogenes isolates from healthy children and pediatric patients in Portugal” (2010).

Holding throughout (assay type): functional
In assay [1] the test system is Streptococcus pyogenes. As to the kind of experiment: Antimicrobial activity against ciprofloxacin-nonsusceptible, K PFGE pattern, emm5 type Streptococcus pyogenes with ST99 sequence type, ParC D83G isolated from oropharyngeal colonization.
The subject of assay [2] is Streptococcus pyogenes. The experiment in a line: Antimicrobial activity against ciprofloxacin-nonsusceptible, AM PFGE pattern, emm6 type Streptococcus pyogenes with ST382 sequence type, ParC S79A mutant isolated from oropharyngeal colonization.
In assay [3] the test system is Streptococcus pyogenes. As to the kind of experiment: Antimicrobial activity against ciprofloxacin-nonsusceptible, DY PFGE pattern, emm6 type Streptococcus pyogenes with ST382 sequence type, ParC S79A mutant isolated from oropharyngeal colonization.
The subject of assay [4] is Streptococcus pyogenes. As to the kind of experiment: Antimicrobial activity against ciprofloxacin-nonsusceptible, DX PFGE pattern, emm6 type Streptococcus pyogenes with ST382 sequence type, ParC S79A mutant isolated from oropharyngeal colonization.
In assay [5] the test system is Streptococcus pyogenes. The experiment in a line: Antimicrobial activity against ciprofloxacin-nonsusceptible Streptococcus pyogenes isolates by agar dilution method. Background: Agar dilution tests growth on a series of plates holding different concentrations.
In assay [6] the test system is Streptococcus pyogenes. As to the kind of experiment: Antimicrobial activity against ciprofloxacin-nonsusceptible, CJ PFGE pattern, emm89 type Streptococcus pyogenes with ST101 sequence type isolated from tonsillitis/pharyngitis.
The test system of assay [7] is Streptococcus pyogenes. As to the kind of experiment: Antimicrobial activity against ciprofloxacin-nonsusceptible, AD PFGE pattern, […] sequence type, ParC S79A mutant isolated from oropharyngeal colonization and onsillitis/pharyngitis.
The test system of assay [8] is Streptococcus pyogenes. The experiment in a line: Antimicrobial activity against ciprofloxacin-nonsusceptible, AD PFGE pattern, […] sequence type, ParC S79A mutant isolated from oropharyngeal colonization.
Assay [9] deals with Streptococcus pyogenes. As to the kind of experiment: Antimicrobial activity against ciprofloxacin-nonsusceptible Streptococcus pyogenes isolates assessed as intermediate resistant isolates by agar dilution method.
Assay [10] relates to Streptococcus pyogenes. The experiment in a line: Antimicrobial activity against ciprofloxacin-nonsusceptible, BT PFGE pattern, emm28 type Streptococcus pyogenes with ST52 sequence type, ParC D83G mutant isolated from skin/soft tissue infection.
For assay [11], the system named is Streptococcus pyogenes. The experiment in a line: Antimicrobial activity against ciprofloxacin-nonsusceptible, AD PFGE pattern, emm6 type Streptococcus pyogenes with ST382 sequence type, ParC S79A mutant isolated from oropharyngeal colonization, tonsillitis/pharyngitis and skin/soft tissue infection.
In assay [12] the test system is Streptococcus pyogenes. As to the kind of experiment: Antimicrobial activity against ciprofloxacin-nonsusceptible Streptococcus pyogenes isolates assessed as resistant isolates by agar dilution method.
In assay [13] the test system is Streptococcus pyogenes. The experiment in a line: Antimicrobial activity against ciprofloxacin-nonsusceptible Streptococcus pyogenes isolates assessed as susceptible isolates by agar dilution method.

Converted amounts (≈) assume the structure as drawn. Where only a bound is given, the exact number is not on record here.

Usually MIC stands for the smallest concentration in the dilution series that meets the test's criterion for growth inhibition. A low value points to inhibition by little substance. For orientation: MIC50 means the lowest concentration that inhibits either 50% of growth or 50% of the strains tested, depending on the study. Read a low MIC50 as greater potency. Broadly, the MIC90 is an inhibitory concentration at the 90% level, which refers to growth in some studies and to a panel of isolates in others. Read a low MIC90 as greater potency. In the case of `COc1c(N2C[C@@H]3CCCN[C@@H]3C2)c(F)cc2c(=O)c(C(=O)O)cn(C3CC3)c12` [MOXIFLOXACIN], the MIC is 0.5 µg/mL (≈ 1.25 µM) with Streptococcus pyogenes [1]; 0.5 µg/mL (≈ 1.25 µM) against Streptococcus pyogenes [2]; 0.5 µg/mL (≈ 1.25 µM) against Streptococcus pyogenes [3]; 0.5 µg/mL (≈ 1.25 µM) against Streptococcus pyogenes [4]; not above 0.25 µg/mL against Streptococcus pyogenes [5]; 0.5 µg/mL (≈ 1.25 µM) in the assay on Streptococcus pyogenes [6]. Further, the MIC was 0.5 µg/mL (≈ 1.25 µM) in the assay on Streptococcus pyogenes [7] and 1 µg/mL (≈ 2.49 µM) in the assay with Streptococcus pyogenes [8]. The molecule further showed an MIC50 in the assay on Streptococcus pyogenes [5] of 0.5 µg/mL (≈ 1.25 µM). Further, the MIC90 in the assay on Streptococcus pyogenes [5] was 0.5 µg/mL (≈ 1.25 µM).

`C[C@H]1COc2c(N3CCN(C)CC3)c(F)cc3c(=O)c(C(=O)O)cn1c23.C[C@H]1COc2c(N3CCN(C)CC3)c(F)cc3c(=O)c(C(=O)O)cn1c23.O` [LEVOFLOXACIN]: the Activity turned out to be 7.6% in the assay with Streptococcus pyogenes [9], 0% in the assay on Streptococcus pyogenes [12] and 92.4% in the assay with Streptococcus pyogenes [13]. The minimal inhibitory concentration (MIC) in the assay on Streptococcus pyogenes [1], with Streptococcus pyogenes [2], against Streptococcus pyogenes [10], in the assay on Streptococcus pyogenes [3], in the assay with Streptococcus pyogenes [4] and with Streptococcus pyogenes [5] was 2 µg/mL each time. The MIC with Streptococcus pyogenes [11] was 2 µg/mL; against Streptococcus pyogenes [6], 2 µg/mL; in the assay on Streptococcus pyogenes [7], 2 µg/mL; against Streptococcus pyogenes [8], 4 µg/mL. The molecule also showed an MIC50 in the assay with Streptococcus pyogenes [5] of 2 µg/mL. In the assay on Streptococcus pyogenes [5], the MIC90 was 2 µg/mL.

As for `O=C(O)c1cn(C2CC2)c2cc(N3CCNCC3)c(F)cc2c1=O` [CIPROFLOXACIN], the MIC in the assay on Streptococcus pyogenes [1] amounted to 2 µg/mL (≈ 6.04 µM); with Streptococcus pyogenes [2] it was 2 µg/mL (≈ 6.04 µM); against Streptococcus pyogenes [10] it was 2 µg/mL (≈ 6.04 µM); in the assay on Streptococcus pyogenes [3], 4 µg/mL (≈ 12.1 µM); against Streptococcus pyogenes [4], 2 µg/mL (≈ 6.04 µM); in the assay on Streptococcus pyogenes [5], 2 µg/mL (≈ 6.04 µM). The MIC in the assay with Streptococcus pyogenes [11] came out at 2 µg/mL (≈ 6.04 µM); against Streptococcus pyogenes [6], 2 µg/mL (≈ 6.04 µM); against Streptococcus pyogenes [7], 2 µg/mL (≈ 6.04 µM); against Streptococcus pyogenes [8], 4 µg/mL (≈ 12.1 µM).

As for `CC1(C)S[C@@H]2[C@H](NC(=O)Cc3ccccc3)C(=O)N2[C@H]1C(=O)O` [PENICILLIN G], the Activity in the assay with Streptococcus pyogenes [9] came out at 0%. In the assay with Streptococcus pyogenes [5], this molecule yielded a minimal inhibitory concentration (MIC) not above 0.03 µg/mL, an MIC50 not above 0.03 µg/mL and an MIC90 not above 0.03 µg/mL. Further, the Activity in the assay with Streptococcus pyogenes [12] came to 0%. Moreover, the Activity in the assay with Streptococcus pyogenes [13] worked out at 100%.

Consider `CN(C)[C@@H]1C(O)=C(C(N)=O)C(=O)[C@@]2(O)C(O)=C3C(=O)c4c(O)cccc4[C@@](C)(O)[C@H]3C[C@@H]12` [TETRACYCLINE], for which, in the assay with Streptococcus pyogenes [9], the Activity is 0%. In the assay on Streptococcus pyogenes [5], the MIC is not above 2 µg/mL, the MIC50 was not above 2 µg/mL and the MIC90 is not above 2 µg/mL. Moreover, in the assay on Streptococcus pyogenes [12], the Activity is 1.5%. In the assay with Streptococcus pyogenes [13], the Activity came to 98.5%.

In the case of `CC[C@H]1OC(=O)[C@H](C)[C@@H](O[C@H]2C[C@@](C)(OC)[C@@H](O)[C@H](C)O2)[C@H](C)[C@@H](O[C@@H]2O[C@H](C)C[C@H](N(C)C)[C@H]2O)[C@](C)(O)C[C@@H](C)C(=O)[C@H](C)[C@@H](O)[C@]1(C)O` [ERYTHROMYCIN], the Activity in the assay with Streptococcus pyogenes [9] was 0%. In the assay with Streptococcus pyogenes [5], this molecule had an MIC not above 0.25 µg/mL, an MIC50 not above 0.25 µg/mL and an MIC90 not above 0.25 µg/mL. Moreover, in the assay on Streptococcus pyogenes [12], the Activity came out at 1.5%. For the same molecule, in the assay on Streptococcus pyogenes [13], the Activity was 98.5%.

Take `CO/N=C(\C(=O)N[C@@H]1C(=O)N2C(C(=O)O)=C(COC(C)=O)CS[C@H]12)c1csc(N)n1` [CEFOTAXIME]: the Activity in the assay on Streptococcus pyogenes [9] is 0%; in the assay with Streptococcus pyogenes [12] it was 0%; with Streptococcus pyogenes [13] it was 100%. Besides, in the assay on Streptococcus pyogenes [5], the MIC was not above 0.06 µg/mL. For the same molecule, the MIC50 in the assay with Streptococcus pyogenes [5] is not above 0.06 µg/mL. In the assay with Streptococcus pyogenes [5], this molecule displayed an MIC90 not above 0.06 µg/mL.

Take `CCC[C@@H]1C[C@@H](C(=O)N[C@@H]([C@H]2O[C@H](SC)[C@H](O)[C@@H](O)[C@H]2O)[C@H](C)Cl)N(C)C1` [CLINDAMYCIN]: the Activity stood at 0% in the assay with Streptococcus pyogenes [9], 1.5% in the assay with Streptococcus pyogenes [12] and 98.5% in the assay with Streptococcus pyogenes [13]. This molecule also had an MIC in the assay with Streptococcus pyogenes [5] not above 0.25 µg/mL. This molecule also had an MIC50 against Streptococcus pyogenes [5] not above 0.25 µg/mL. The MIC90 with Streptococcus pyogenes [5] is not above 0.25 µg/mL.

Consider `CN(C)c1cc(NC(=O)CNC(C)(C)C)c(O)c2c1C[C@H]1C[C@H]3[C@H](N(C)C)C(O)=C(C(N)=O)C(=O)[C@@]3(O)C(O)=C1C2=O` [TIGECYCLINE], for which the MIC against Streptococcus pyogenes [5] amounted to 0.025 µg/mL (≈ 0.0427 µM).

In the case of `CN[C@H](CC(C)C)C(=O)N[C@H]1C(=O)N[C@@H](CC(N)=O)C(=O)N[C@H]2C(=O)N[C@H]3C(=O)N[C@H](C(=O)N[C@H](C(=O)O)c4cc(O)cc(O)c4-c4cc3ccc4O)[C@H](O)c3ccc(c(Cl)c3)Oc3cc2cc(c3O[C@@H]2O[C@H](CO)[C@@H](O)[C@H](O)[C@H]2O[C@H]2C[C@](C)(N)[C@H](O)[C@H](C)O2)Oc2ccc(cc2Cl)[C@H]1O` [VANCOMYCIN], the Activity with Streptococcus pyogenes [9] is listed as 0%. In the assay on Streptococcus pyogenes [5], the MIC was not above 0.25 µg/mL, the MIC50 is 0.5 µg/mL (≈ 0.345 µM) and the MIC90 is 0.5 µg/mL (≈ 0.345 µM). In addition, in the assay on Streptococcus pyogenes [12], the Activity turned out to be 0%. For the same molecule, in the assay on Streptococcus pyogenes [13], the Activity was 100%.

For `CC1(C)S[C@@H]2[C@H](NC(=O)[C@H](N)c3ccccc3)C(=O)N2[C@H]1C(=O)O` [AMPICILLIN], in the assay with Streptococcus pyogenes [9], the Activity came to 0%. In the assay with Streptococcus pyogenes [5], this molecule came in with an MIC not above 0.25 µg/mL, an MIC50 not above 0.25 µg/mL and an MIC90 not above 0.25 µg/mL. The Activity with Streptococcus pyogenes [12] is listed as 0%. The Activity with Streptococcus pyogenes [13] worked out at 100%.
